pEC50: −log10 of the molar value. Like-named read-outs stand apart in the source and are kept apart here.
How the values were obtained:
[1] = molecular target: T1, human PARP1 (Homo sapiens, UniProt P09874); assay: PARP inhibitor assay (HT Fluorescent Homogeneous PARP Inhibition Assay Kit); type: biochemical; settings: score
T1 construct: purchased Trevigen
Summary of the method: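 Human PARP1 with NAD and activated DNA, compounds at 10 μM final, 30 min at room temperature in dark. Resazurin/diaphorase cycling mix then added for 1 hr in dark before stop buffer; fluorescent homogeneous kit read-out.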

[2] = tested on: WI-38 cells; assay: CdCl2 (cadmium) resistance assay; type: cell-based, human; settings: for fold induction at 10 µM: Homo sapiens, 12 h, normalized ATP measurement; for Assay 4: H2O2- & Cd-resistant / Assay 2: Cadmium-resistant: YES/NO; for Assay 2: Cadmium-resistant: * indicates partial
Summary of the method: (§1)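 WI-38 cells were given compounds at five final concentrations (0.25–20 μM) in triplicate, followed by cadmium or MMS for 12 h. For MMS, medium was switched from OptiMEM+10% FBS to serum-free DMEM+2% BSA when compounds were added, 24 h before stressor. Two independent assays were run, analysed by global variance t-test.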

[3] = tested on: WI-38 cells; assay: MMS resistance assay; type: cell-based, human; settings: for fold induction at 10 µM: Homo sapiens, 12 h, normalized ATP measurement
Summary of the method: as §1

[4] = tested on: C. elegans; type: in vivo, Caenorhabditis elegans; settings: in vivo
Summary of the method: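 Worms treated in liquid with compounds in 96-well plates (4 wells each, FUdR to block progeny, 0.2% DMSO controls); H2O2 at 500 μM final added on day 4 of adulthood and viability scored daily.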

[5] = tested on: phosphorylated γH2A.X and TP53BP1; assay: DNA damage marker analysis (immuno-staining); settings: for activity at 10 µM: Homo sapiens, WI-38, 24 h; for P = Potential DNA-damaging / R = Potential DNA damaging: human, 24 h
Summary of the method: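 WI-38 cells were cultured 24 h, then treated with compounds for 24 h; H2O2 (700 μM, 3 h) and doxorubicin (300 nM, 24 h) served as DNA-damage controls. After fixation, cells were immunostained for phospho-γH2A.X (Ser-139) and phospho-TP53BP1 (Ser-1778), counterstained with DAPI, and imaged by automated high-content microscopy.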

[6] = tested on: WI-38 cells; settings: for No H2O2 stress treatment, at 10 uM (fold change): normalized ATP measurement; for Assay 1: H2O2-resistant: YES/NO, if NO, possibly due to repeated freezing/thawing of stocks
[7] = Exp. 1, WI-38 cells, read-out: Exp. 1, under Cd2Cl2 stress treatment, at 10 uM (fold change)
[8] = Exp. 2, WI-38 cells, read-out: Exp. 2, under Cd2Cl2 stress treatment, at 10 uM (fold change)
[9] = WI-38 cells, 10 μM, both stressors
[10] = score in summary of 38 core set hits
[11] = Exp. 1, WI-38 cells, read-out: Exp. 1, under MMS stress treatment, at 10 uM (fold change)
[12] = Exp. 2, WI-38 cells, read-out: Exp. 2, under MMS stress treatment, at 10 uM (fold change)
[13] = read-out: Experiment 1, H2A.X-P DNA damage foci staining (no H2O2 stress treatment), at 10 uM
[14] = read-out: Experiment 2, H2A.X-P DNA damage foci staining (no H2O2 stress treatment), at 10 uM
[15] = read-out: Experiment 2, H2A.X-P DNA damage foci staining (under H2O2 stress treatment), at 10 uM
[16] = read-out: Experiment 2, TP53BP1-P DNA damage foci staining (no H2O2 stress treatment), at 10 uM
[17] = read-out: Experiment 2, TP53BP1-P DNA damage foci staining (under H2O2 stress treatment), at 10 uM
[18] = WI-38 cells, 10 μM, (*) = compromised ability to protect cells from H2O2, could be due to stability issue
[19] = asterisks indicate the loss of the ability to protect cells from H2O2 over time
[20] = derived from dose response curves, 0.6-20 uM, H2O2-resistance of WI-38 cells
[21] = read-out: Est. ED50, dose response 0.6-20 μM, H2O2-resistance

T1 sequence (P09874 whole entry): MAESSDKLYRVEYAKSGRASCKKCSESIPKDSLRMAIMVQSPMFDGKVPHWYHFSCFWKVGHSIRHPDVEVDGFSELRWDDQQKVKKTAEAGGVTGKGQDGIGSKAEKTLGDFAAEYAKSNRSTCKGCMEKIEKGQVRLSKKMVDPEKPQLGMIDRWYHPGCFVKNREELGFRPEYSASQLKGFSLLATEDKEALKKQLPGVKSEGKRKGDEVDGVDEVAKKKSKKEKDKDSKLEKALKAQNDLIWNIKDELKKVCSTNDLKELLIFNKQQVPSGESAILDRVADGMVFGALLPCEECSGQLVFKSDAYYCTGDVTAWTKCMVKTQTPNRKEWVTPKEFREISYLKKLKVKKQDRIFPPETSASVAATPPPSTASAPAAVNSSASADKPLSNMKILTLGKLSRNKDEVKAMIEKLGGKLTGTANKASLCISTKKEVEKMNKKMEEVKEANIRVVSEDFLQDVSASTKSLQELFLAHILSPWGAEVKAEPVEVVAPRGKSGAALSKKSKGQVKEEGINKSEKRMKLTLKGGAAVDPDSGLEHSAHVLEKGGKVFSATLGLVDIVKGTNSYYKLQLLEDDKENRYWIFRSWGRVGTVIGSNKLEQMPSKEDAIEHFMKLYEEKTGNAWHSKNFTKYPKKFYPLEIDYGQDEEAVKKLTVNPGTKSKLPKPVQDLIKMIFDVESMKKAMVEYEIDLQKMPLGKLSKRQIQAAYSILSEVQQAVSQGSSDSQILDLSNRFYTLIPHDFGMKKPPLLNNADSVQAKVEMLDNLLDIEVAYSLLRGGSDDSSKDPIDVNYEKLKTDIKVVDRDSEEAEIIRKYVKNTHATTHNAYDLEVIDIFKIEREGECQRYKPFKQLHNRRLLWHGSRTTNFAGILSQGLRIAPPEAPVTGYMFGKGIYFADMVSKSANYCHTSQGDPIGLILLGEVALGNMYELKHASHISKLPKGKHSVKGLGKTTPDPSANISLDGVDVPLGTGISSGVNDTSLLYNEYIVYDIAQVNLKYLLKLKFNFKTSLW

Compound	L = PARP inhibition [1]	fold induction at 10 µM [2, 7]	fold induction at 10 µM [2, 8]	A = Cadmium resistant [2, 10]	A = Cadmium resistant ([2]; summary score)	C = H2O2- & Cd-resistant ([2]; summary score)	fold induction at 10 µM [3, 11]	fold induction at 10 µM [3, 12]	B = MMS resistant [3, 10]	B = MMS resistant ([3]; summary score)	D = Triple resistant ([3]; summary score)	L = H2O2-resistance in worms [4]	N = H2O2-resistance in woms [4]	activity at 10 µM [5, 13]	activity at 10 µM [5, 14]	activity at 10 µM [5, 15]	activity at 10 µM [5, 16]	activity at 10 µM [5, 17]	P = Potential DNA-damaging [5]	R = Potential DNA damaging [5]	further results
O=C(Nc1nc(C23CC4CC(CC(C4)C2)C3)cs1)C(c1ccccc1)c1ccccc1 [O10]	0	2.73	2	1	1	1	1.08	4.08	0	0	0	0	0	102%	71.5%	153%	135%	498%	0	0	CdCl2-resistant [2]: YES; H2O2- & CdCl2-resistant [2]: YES; CdCl2-resistant ([2]; WI-38 cells, 10 μM): YES; H2O2- & CdCl2-resistant [2, 9]: YES; Assay 4: H2O2- & Cd-resistant [2]: YES; Assay 2: Cadmium-resistant [2]: YES; H2O2-resistant [6, 18]: YES; No H2O2 stress treatment, at 10 uM (fold change) ([6]; WI-38 cells): 1.08 fold change; Assay 1: H2O2-resistant [6]: YES; H2O2-resistant [6, 19]: YES; pEC50 [6, 20]: 5.02; pEC50 [6, 21]: 5.02
CCc1ccc(Oc2nc3ccccn3c(=O)c2/C=C(\C#N)C(=O)NCc2ccco2)cc1 [Gr-5B]	0	1.29	1.36	0	0	0	1.13	1.36	0	0	0	0	0	100%	128%	168%	223%	540%	0	0	H2O2-resistant [6, 18]: YES; No H2O2 stress treatment, at 10 uM (fold change) ([6]; WI-38 cells): 1.19 fold change; H2O2-resistant [6, 19]: YES; pEC50 [6, 20]: 5.06; pEC50 [6, 21]: 4.84
CCc1ccccc1NC(=O)c1ccc([N+](=O)[O-])o1 [Gr-1C]	0	7.9	9.86	1	1	1	0.73	0.39	0	0	0	0	0	217%	311%	178%	375%	552%	1	1	CdCl2-resistant [2]: YES; H2O2- & CdCl2-resistant [2]: YES; CdCl2-resistant ([2]; WI-38 cells, 10 μM): YES; H2O2- & CdCl2-resistant [2, 9]: YES; Assay 4: H2O2- & Cd-resistant [2]: YES; Assay 2: Cadmium-resistant [2]: YES; H2O2-resistant [6, 18]: YES; No H2O2 stress treatment, at 10 uM (fold change) ([6]; WI-38 cells): 0.81 fold change; Assay 1: H2O2-resistant [6]: YES; H2O2-resistant [6, 19]: YES; pEC50 [6, 20]: 5.10; pEC50 [6, 21]: 5.58

Source: US11413278B2, “Compounds and methods for promoting stress resistance” (priority 2015, dated 2022)
